From patent publication US8013006B2
Where two headings read alike, the source gives them in different places.

How the values were obtained:
[1] = test system: HCV replicon; assay: microbe, parasite or virus in culture; assay type: cell-based; details: Hepatitis C virus, 48 h

With `CCn1c(-c2ccc(NS(=O)(=O)CC)cc2)c(C#N)c2ccc(OCc3ccccn3)cc21` [Compound 671] the IC50 ([1]; read-out: Replicon IC5Os) was less than 0.5 µM and the melting point was 221 to 222 °C.
With `CCOC(=O)Nc1ccc(-c2c(C#N)c3ccc(OC)cc3n2CCOC)cc1` [Compound 676] the IC50 ([1]; read-out: Replicon IC5Os) was 0.5 to 2 µM and the melting point was 174 to 175 °C.
Work on `CCCOC(=O)Nc1ccc(-c2c(C#N)c3ccc(OC)cc3n2CCOC)cc1` [Compound 677] yielded an IC50 ([1]; read-out: Replicon IC5Os) of 0.5 to 2 µM and a melting point of 133 to 134 °C.
For `CCNC(=O)N1CCc2cc(-c3c(C#N)c4ccc(OC)cc4n3CC)ccc21` [Compound 679], the IC50 ([1]; read-out: Replicon IC5Os) was 0.5 to 2 µM and the melting point was 212 to 220 °C.
For `CCCNC(=O)N1CCc2cc(-c3c(C#N)c4ccc(OC)cc4n3CC)ccc21` [Compound 680], the IC50 ([1]; read-out: Replicon IC5Os) was less than 0.5 µM and the melting point was 163 to 168 °C.
Compound `CCn1c(-c2ccc3c(c2)CCN3C(=O)NC(C)C)c(C#N)c2ccc(OC)cc21` [Compound 681] has an IC50 ([1]; read-out: Replicon IC5Os) of 0.5 to 2 µM and a melting point of 192 to 197 °C.
Work on `CCOc1ccc2c(C#N)c(-c3ccc(N(C)S(C)(=O)=O)cc3)n(C3CCC3)c2c1` [Compound 690] yielded an IC50 ([1]; read-out: Replicon IC5Os) of 0.5 to 2 µM and a melting point of 192 to 193 °C.
`CCOc1ccc2c(C#N)c(-c3ccc(N(C)S(=O)(=O)CC)cc3)n(C)c2c1` [Compound 692] gave an IC50 ([1]; read-out: Replicon IC5Os) of 0.5 to 2 µM and a melting point of 175 to 176 °C.
`CCOc1ccc2c(C#N)c(-c3ccc(N(C)S(=O)(=O)CC)cc3)n(CC)c2c1` [Compound 693] gave an IC50 ([1]; read-out: Replicon IC5Os) of less than 0.5 µM and a melting point of 163 to 164 °C.
In the case of `CCn1c(-c2ccc(N3CCCS3(=O)=O)cc2)c(C#N)c2ccc(OCCF)cc21` [Compound 699], the IC50 ([1]; read-out: Replicon IC5Os) is reported as less than 0.5 µM and the melting point is reported as 255 to 258 °C.
For `CCn1c(-c2ccc3c(c2)CCN3S(C)(=O)=O)c(C#N)c2ccc(OC)cc21` [Compound 701], the IC50 ([1]; read-out: Replicon IC5Os) was 0.5 to 2 µM and the melting point was 188 to 194 °C.
In the case of `CCn1c(-c2ccc3c(c2)CCN3S(=O)(=O)CC)c(C#N)c2ccc(OC)cc21` [Compound 702], the IC50 ([1]; read-out: Replicon IC5Os) is reported as 0.5 to 2 µM and the melting point is reported as 147 to 150 °C.
In the case of `CCCCn1c(-c2ccc(NS(=O)(=O)CC)cc2)c(C#N)c2ccc(OC)cc21` [Compound 707], the IC50 ([1]; read-out: Replicon IC5Os) is reported as 0.5 to 2 µM and the melting point is reported as 159 to 161 °C.
For `CCCCn1c(-c2ccc(NS(=O)(=O)C3CC3)cc2)c(C#N)c2ccc(OC)cc21` [Compound 709], the IC50 ([1]; read-out: Replicon IC5Os) was less than 0.5 µM and the melting point was 166 to 168 °C.
In the case of `CCCn1c(-c2ccc(NS(=O)(=O)CC)cc2)c(C#N)c2cc(OCc3ccccc3)ccc21` [Compound 713], the IC50 ([1]; read-out: Replicon IC5Os) is reported as 0.5 to 2 µM and the melting point is reported as 199 to 202 °C.
`COc1ccc2c(C#N)c(-c3ccc(N4CCCS4(=O)=O)cc3)n(CC(C)C)c2c1` [Compound 717] showed an IC50 ([1]; read-out: Replicon IC5Os) of 0.5 to 2 µM and a melting point of 205 to 207 °C.
Work on `COc1ccc2c(C#N)c(-c3cccc(NS(C)(=O)=O)c3)n(C3CCCC3)c2c1` [Compound 720] yielded an IC50 ([1]; read-out: Replicon IC5Os) of 0.5 to 2 µM and a melting point of 172 to 178 °C.
With `COc1ccc2c(C#N)c(-c3cccc(NC(=O)OC(C)C)c3)n(C3CCCC3)c2c1` [Compound 723] the IC50 ([1]; read-out: Replicon IC5Os) was 0.5 to 2 µM and the melting point was 175 to 180 °C.
`CCn1c(-c2ccc(N3CCN(Cc4ccccc4)S3(=O)=O)cc2)c(C#N)c2ccc(OC)cc21` [Compound 727] gave an IC50 ([1]; read-out: Replicon IC5Os) of 0.5 to 2 µM and a melting point of 217 to 218 °C.
With `CCn1c(-c2ccc(N3CCCC3=O)cc2)c(C#N)c2ccc(OC(C)C)cc21` [Compound 731] the IC50 ([1]; read-out: Replicon IC5Os) was less than 0.5 µM and the melting point was 173 to 174 °C.
Work on `COc1ccc2c(C#N)c(-c3ccc(N4CCCC4=O)cc3)n(CCF)c2c1` [Compound 732] yielded an IC50 ([1]; read-out: Replicon IC5Os) of 0.5 to 2 µM and a melting point of 219 to 221 °C.
`COC(=O)Nc1ccc(-c2c(C#N)c3ccc(OC(F)F)cc3n2CC2CC2)cc1` [Compound 734] showed an IC50 ([1]; read-out: Replicon IC5Os) of 0.5 to 2 µM and a melting point of 167 to 169 °C.
With `CCOC(=O)Nc1ccc(-c2c(C#N)c3ccc(OC(F)F)cc3n2CC2CC2)cc1` [Compound 735] the IC50 ([1]; read-out: Replicon IC5Os) was less than 0.5 µM and the melting point was 123 to 125 °C.
With `CC(C)OC(=O)Nc1ccc(-c2c(C#N)c3ccc(OC(F)F)cc3n2CC2CC2)cc1` [Compound 737] the IC50 ([1]; read-out: Replicon IC5Os) was 0.5 to 2 µM and the melting point was 153 to 155 °C.
In the case of `N#Cc1c(-c2ccc(NC(=O)OCCF)cc2)n(CC2CC2)c2cc(OC(F)F)ccc12` [Compound 738], the IC50 ([1]; read-out: Replicon IC5Os) is reported as less than 0.5 µM and the melting point is reported as 149 to 151 °C.
`CCCNC(=O)Nc1ccc(-c2c(C#N)c3ccc(OC(F)F)cc3n2CC2CC2)cc1` [Compound 741] showed an IC50 ([1]; read-out: Replicon IC5Os) of less than 0.5 µM and a melting point of 194 to 196 °C.
`CCCCNC(=O)Nc1ccc(-c2c(C#N)c3ccc(OC(F)F)cc3n2CC2CC2)cc1` [Compound 742] showed an IC50 ([1]; read-out: Replicon IC5Os) of 0.5 to 2 µM and a melting point of 171 to 173 °C.
For `N#Cc1c(-c2ccc(NC(=O)NC3CCCC3)cc2)n(CC2CC2)c2cc(OC(F)F)ccc12` [Compound 743], the IC50 ([1]; read-out: Replicon IC5Os) was less than 0.5 µM and the melting point was 129 °C.
Work on `COC(=O)Nc1cccc(-c2c(C#N)c3ccc(OC(F)F)cc3n2CC2CC2)c1` [Compound 744] yielded an IC50 ([1]; read-out: Replicon IC5Os) of less than 0.5 µM and a melting point of 92 to 93 °C.
Compound `CCCCn1c(-c2ccc(NC(=O)OCCF)cc2)c(C#N)c2ccc(OC)cc21` [Compound 747] has an IC50 ([1]; read-out: Replicon IC5Os) of less than 0.5 µM and a melting point of 136 to 137 °C.
In the case of `CCCCn1c(-c2ccc(NC(=O)NCC)cc2)c(C#N)c2ccc(OC)cc21` [Compound 748], the IC50 ([1]; read-out: Replicon IC5Os) is reported as less than 0.5 µM and the melting point is reported as 186 to 188 °C.
In the case of `CCCCn1c(-c2ccc(NC(=O)NCCC)cc2)c(C#N)c2ccc(OC)cc21` [Compound 749], the IC50 ([1]; read-out: Replicon IC5Os) is reported as less than 0.5 µM and the melting point is reported as 176 to 178 °C.
For `CCCCNC(=O)Nc1ccc(-c2c(C#N)c3ccc(OC)cc3n2CCCC)cc1` [Compound 750], the IC50 ([1]; read-out: Replicon IC5Os) was less than 0.5 µM and the melting point was 173 to 174 °C.
`CCCCn1c(-c2ccc(NC(=O)NC(C)C)cc2)c(C#N)c2ccc(OC)cc21` [Compound 751] showed an IC50 ([1]; read-out: Replicon IC5Os) of 0.5 to 2 µM and a melting point of 159 to 162 °C.
For `CCn1c(-c2ccc3c(c2)N(S(C)(=O)=O)CC3)c(C#N)c2ccc(OC)cc21` [Compound 752], the IC50 ([1]; read-out: Replicon IC5Os) was 0.5 to 2 µM and the melting point was 198 to 202 °C.
Compound `CCn1c(-c2ccc3c(c2)N(S(=O)(=O)CC)CC3)c(C#N)c2ccc(OC)cc21` [Compound 753, 1′-ethanesulfonyl-1-ethyl-6-methoxy-2′,3′-dihydro-1H,1H′-[2,6′]biindolyl-3-carbonitrile] has an IC50 ([1]; read-out: Replicon IC5Os) of less than 0.5 µM and a melting point of 157 to 161 °C.
For `CCn1c(-c2ccc(N)cc2)c(C#N)c2ccc(OC(C)C)cc21` [Compound 758], the IC50 ([1]; read-out: Replicon IC5Os) was less than 0.5 µM and the melting point was 149 to 153 °C.
Compound `CCn1c(-c2ccc(NC(=O)CCc3ccccc3)cc2)c(C#N)c2ccc(OC(C)C)cc21` [Compound 762] has an IC50 ([1]; read-out: Replicon IC5Os) of less than 0.5 µM and a melting point of 190 to 193 °C.
In the case of `CCn1c(-c2ccc(NC(=O)c3ccccc3)cc2)c(C#N)c2ccc(OC(C)C)cc21` [Compound 763], the IC50 ([1]; read-out: Replicon IC5Os) is reported as less than 0.5 µM and the melting point is reported as 209.2 to 209.7 °C.
`CCn1c(-c2ccc(NC(=O)c3ccc(F)cc3)cc2)c(C#N)c2ccc(OC(C)C)cc21` [Compound 764] showed an IC50 ([1]; read-out: Replicon IC5Os μM) of less than 0.5 µM and a melting point of 213.5 to 231.7 °C.
`CCOc1ccc2c(C#N)c(-c3ccc(NC(=O)NCCCl)cc3)n(CC)c2c1` [Compound 774] showed an IC50 ([1]; read-out: Replicon IC5Os μM) of 0.5 to 2 µM and a melting point of 205 to 206 °C.
With `COc1ccc2c(C#N)c(-c3cccc(N4CCCS4(=O)=O)c3)n(C(C)C)c2c1` [Compound 784] the IC50 ([1]; read-out: Replicon IC5Os μM) was 0.5 to 2 µM and the melting point was 245 to 246 °C.
`CCCS(=O)(=O)Nc1ccc(-c2c(C#N)c3cc(OC)ccc3n2CC)cc1` [Compound 789] gave an IC50 ([1]; read-out: Replicon IC5Os μM) of less than 0.5 µM and a melting point of 154 to 156 °C.
Compound `CCn1c(-c2ccc(NS(=O)(=O)C3CC3)cc2)c(C#N)c2cc(OC)ccc21` [Compound 791] has an IC50 ([1]; read-out: Replicon IC5Os μM) of less than 0.5 µM and a melting point of 149 to 152 °C.
